We go through 9 test systems from the supplement of paper PMC6045584.

Compound in test [1]: COc1cc2ncnc(Nc3ccc(F)c(Cl)c3)c2cc1NC(=O)/C=C/CN1CCCCC1
The test is described as follows: surviving fraction relative to DMSO-only wells; higher = less growth inhibition. The conditions noted are these: exposure time: 5 days. In a few lines: (§1)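 Log-phase tumour cell lines, 250–500 cells per well in 384-well plates, received inhibitors at 0.5, 1, 5, 10, 50, 100, 500 and 1000 nM continuously for five days, starting 24 hours after seeding. Viability was quantified with CellTiter-Glo luminescence and normalised to the median of DMSO-only wells to give surviving fraction. Three screens were run per line, and a line stayed in only with replicate Pearson r >0.7 and median Z' >0.3.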

Compound in test [2]: Oc1nc(-c2ccc(C(F)(F)F)cc2)nc2c1CSCC2 [XAV-939]
The test is described as above. The note with it: exposure time: 5 days. In short, it runs like this: as §1

± gives the standard deviation of the averaged measurements.

In the case of VCAP PROSTATE, the surviving fraction was found to be 0.95 ± 0.04 in test [1] (0.5 nM); 0.769 ± 0.036 in test [1] (1 nM); 0.967 ± 0.08 in test [1] (5 nM); 1.04 ± 0.12 in test [1] (10 nM); 1.04 ± 0.048 in test [1] (50 nM); 0.996 ± 0.14 in test [1] (100 nM). Further, the surviving fraction in test [1] (500 nM) turned out to be 0.725 ± 0.078; in test [1] (1000 nM), 0.406 ± 0.025; in test [2] (0.5 nM), 0.963 ± 0.12; in test [2] (1 nM), 0.958 ± 0.077; in test [2] (5 nM), 1.08 ± 0.092; in test [2] (10 nM), 0.973 ± 0.089. In addition, the surviving fraction is 0.957 ± 0.083 in test [2] (50 nM), 0.903 ± 0.088 in test [2] (100 nM), 0.848 ± 0.13 in test [2] (500 nM) and 0.84 ± 0.024 in test [2] (1000 nM).

In the case of NOS1 BONE, the surviving fraction amounted to 1.1 ± 0.045 in test [1] (0.5 nM); 1.15 ± 0.077 in test [1] (1 nM); 1.14 ± 0.051 in test [1] (5 nM); 1.17 ± 0.094 in test [1] (10 nM); 1.12 ± 0.16 in test [1] (50 nM); 0.968 ± 0.033 in test [1] (100 nM). Besides, the surviving fraction turned out to be 0.26 ± 0.011 in test [1] (500 nM); 0.135 ± 0.012 in test [1] (1000 nM); 1.11 ± 0.086 in test [2] (0.5 nM); 1.06 ± 0.045 in test [2] (1 nM); 1.29 ± 0.26 in test [2] (5 nM); 1.14 ± 0.074 in test [2] (10 nM). Besides, the surviving fraction in test [2] (50 nM) came to 1.17 ± 0.083; in test [2] (100 nM) it was 1.06 ± 0.096; in test [2] (500 nM) it was 0.783 ± 0.1; in test [2] (1000 nM) it was 0.778 ± 0.065.

For H23 LUNG, the surviving fraction in test [1] (0.5 nM) came out at 0.91 ± 0.056; in test [1] (1 nM), 0.744 ± 0.035; in test [1] (5 nM) it was 0.468 ± 0.015; in test [1] (10 nM) it was 0.414 ± 0.026; in test [1] (50 nM) it was 0.381 ± 0.013; in test [1] (100 nM), 0.38 ± 0.018. In addition, the surviving fraction in test [1] (500 nM) stood at 0.332 ± 0.023; in test [1] (1000 nM), 0.292 ± 0.023; in test [2] (0.5 nM), 0.953 ± 0.035; in test [2] (1 nM) it was 1.03 ± 0.062; in test [2] (5 nM), 1.04 ± 0.071; in test [2] (10 nM), 1.08 ± 0.075. The surviving fraction in test [2] (50 nM) was 1.01 ± 0.037; in test [2] (100 nM), 0.992 ± 0.02; in test [2] (500 nM) it was 0.391 ± 0.041; in test [2] (1000 nM), 0.318 ± 0.024.

With SUM44 BREAST, the surviving fraction came to 1.01 ± 0.028 in test [1] (0.5 nM); 1.03 ± 0.031 in test [1] (1 nM); 1.01 ± 0.05 in test [1] (5 nM); 1.01 ± 0.053 in test [1] (10 nM); 1.03 ± 0.06 in test [1] (50 nM); 1.07 ± 0.018 in test [1] (100 nM). Besides, the surviving fraction in test [1] (500 nM) was found to be 0.916 ± 0.044; in test [1] (1000 nM), 0.727 ± 0.0096; in test [2] (0.5 nM) it was 1.02 ± 0.059; in test [2] (1 nM) it was 1.05 ± 0.051; in test [2] (5 nM), 1.05 ± 0.02; in test [2] (10 nM), 1.06 ± 0.044. Besides, the surviving fraction was 1.08 ± 0.045 in test [2] (50 nM), 1.1 ± 0.025 in test [2] (100 nM), 1.07 ± 0.023 in test [2] (500 nM) and 1.12 ± 0.06 in test [2] (1000 nM).

Take HCT15 LARGE INTESTINE: the surviving fraction in test [1] (0.5 nM) was found to be 1.03 ± 0.044; in test [1] (1 nM), 1.09 ± 0.06; in test [1] (5 nM), 1.05 ± 0.043; in test [1] (10 nM), 1.06 ± 0.069; in test [1] (50 nM), 1.02 ± 0.033; in test [1] (100 nM), 1.06 ± 0.031. Besides, the surviving fraction in test [1] (500 nM) is 1.03 ± 0.088; in test [1] (1000 nM), 0.821 ± 0.057; in test [2] (0.5 nM) it was 1.03 ± 0.058; in test [2] (1 nM) it was 1.07 ± 0.031; in test [2] (5 nM) it was 1.04 ± 0.034; in test [2] (10 nM), 1.07 ± 0.059. Also, the surviving fraction in test [2] (50 nM) turned out to be 0.932 ± 0.054; in test [2] (100 nM) it was 1.03 ± 0.03; in test [2] (500 nM), 0.961 ± 0.064; in test [2] (1000 nM) it was 0.973 ± 0.04.

With HU09 BONE, the surviving fraction in test [1] (0.5 nM) came to 1.09 ± 0.03; in test [1] (1 nM) it was 0.996 ± 0.062; in test [1] (5 nM) it was 1.14 ± 0.028; in test [1] (10 nM) it was 1.11 ± 0.12; in test [1] (50 nM), 1.15 ± 0.019; in test [1] (100 nM), 1.01 ± 0.12. Besides, the surviving fraction was determined as 0.635 ± 0.0066 in test [1] (500 nM); 0.432 ± 0.026 in test [1] (1000 nM); 1.11 ± 0.087 in test [2] (0.5 nM); 1.13 ± 0.061 in test [2] (1 nM); 1.06 ± 0.17 in test [2] (5 nM); 1.09 ± 0.051 in test [2] (10 nM). The surviving fraction in test [2] (50 nM) stood at 1.01 ± 0.11; in test [2] (100 nM), 1.21 ± 0.031; in test [2] (500 nM), 0.817 ± 0.049; in test [2] (1000 nM), 0.788 ± 0.043.

Take SUM149 BREAST: the surviving fraction in test [1] (0.5 nM) stood at 1.03 ± 0.095; in test [1] (1 nM), 1.03 ± 0.061; in test [1] (5 nM), 0.851 ± 0.04; in test [1] (10 nM) it was 0.747 ± 0.044; in test [1] (50 nM), 0.515 ± 0.056; in test [1] (100 nM), 0.395 ± 0.091. For the same test system, the surviving fraction in test [1] (500 nM) was 0.362 ± 0.013; in test [1] (1000 nM) it was 0.341 ± 0.071; in test [2] (0.5 nM), 1.02 ± 0.094; in test [2] (1 nM) it was 0.987 ± 0.05; in test [2] (5 nM) it was 0.971 ± 0.067; in test [2] (10 nM) it was 0.942 ± 0.034. Also, the surviving fraction in test [2] (50 nM) stood at 0.854 ± 0.095; in test [2] (100 nM), 0.691 ± 0.037; in test [2] (500 nM), 0.432 ± 0.0091; in test [2] (1000 nM) it was 0.328 ± 0.022.

For the test system A549 LUNG, the surviving fraction in test [1] (0.5 nM) was 1.03 ± 0.089; in test [1] (1 nM) it was 0.985 ± 0.053; in test [1] (5 nM), 0.986 ± 0.08; in test [1] (10 nM), 0.962 ± 0.034; in test [1] (50 nM), 1.04 ± 0.066; in test [1] (100 nM), 1.02 ± 0.024. Also, the surviving fraction in test [1] (500 nM) was 1 ± 0.044; in test [1] (1000 nM) it was 1.02 ± 0.042; in test [2] (0.5 nM) it was 0.967 ± 0.022; in test [2] (1 nM) it was 0.985 ± 0.053; in test [2] (5 nM), 1.01 ± 0.035; in test [2] (10 nM), 1.02 ± 0.087. The surviving fraction amounted to 1.07 ± 0.022 in test [2] (50 nM), 1.12 ± 0.013 in test [2] (100 nM), 1.084 ± 0.0087 in test [2] (500 nM) and 1.14 ± 0.022 in test [2] (1000 nM).

As to LM7 BONE, the surviving fraction in test [1] (0.5 nM) stood at 0.93 ± 0.059; in test [1] (1 nM), 0.998 ± 0.078; in test [1] (5 nM), 0.983 ± 0.063; in test [1] (10 nM) it was 1.06 ± 0.094; in test [1] (50 nM), 1.01 ± 0.011; in test [1] (100 nM), 0.957 ± 0.055. Further, the surviving fraction came out at 0.532 ± 0.063 in test [1] (500 nM); 0.287 ± 0.006 in test [1] (1000 nM); 0.964 ± 0.078 in test [2] (0.5 nM); 1.03 ± 0.062 in test [2] (1 nM); 1.05 ± 0.075 in test [2] (5 nM); 1.131 ± 0.011 in test [2] (10 nM). In addition, the surviving fraction in test [2] (50 nM) was 1.08 ± 0.11; in test [2] (100 nM), 1.08 ± 0.048; in test [2] (500 nM) it was 0.915 ± 0.068; in test [2] (1000 nM) it was 0.877 ± 0.045.
